The test has as its system L. donovani-infected THP-1 macrophages, intracellular amastigote imaging. Put plainly: intracellular L. donovani amastigote inhibition, imaging, THP-1 host macrophages, host toxicity (AID 1159564).
The mark [1] stands for this setting: measured here: THP-1 host cell toxicity.
Where [2] appears, read: measured here: amastigotes per macrophage.

Activity calls are given as the source filed them. How the calls were made is not given here.

For the compound `Cc1ccccc1CNC(=O)CN(Cc1ccccn1)Cc1ccccn1`, the concentration for half-maximal inhibition (IC50) (in general, the midpoint of a concentration-inhibition curve) was 6.3 µM. Under setting [1], this compound yielded a half-inhibitory concentration (IC50) greater than 79 µM. The compound also registered a concentration for half-maximal inhibition (IC50) under setting [2] of 4 µM.
Consider `COc1ccc(Cl)cc1CC(=O)Nc1n[nH]c(-c2ccccn2)n1`, for which the half-maximal inhibitory concentration (IC50) is 6.3 µM. The same compound displayed a 50% inhibitory concentration (IC50) under setting [1] greater than 50 µM. This compound also gave an IC50 under setting [2] of 5 µM.
For the compound `O=C(Nc1ccc(Br)cn1)c1ccc(Cn2cnc([N+](=O)[O-])n2)cc1`, the IC50 was > 50 µM (inactive). Under setting [1], this compound had a half-inhibitory concentration (IC50) greater than 50 µM. Under setting [2], the half-inhibitory concentration (IC50) is greater than 50 µM.
For `CN(Cc1ccc(F)cc1)c1ccc(OCC(=O)N2CCCCC2c2cccnc2)nn1` (stereo unspecified), the IC50 was > 50 µM (inactive). This compound also gave an IC50 under setting [1] of 32 µM. The IC50 under setting [2] was greater than 50 µM.
For the compound `O=c1oc2ccccc2n1C1CCN(Cc2ccccc2-c2cccnc2)CC1`, the IC50 was > 50 µM (inactive). Under setting [1], the IC50 was 13 µM. Further, under setting [2], the IC50 turned out to be 6.3 µM.
The corresponding values for `Nc1ncnc2c1ncn2[C@@H]1O[C@H](CO)C[C@H]1O` are > 50 µM (inactive), greater than 50 µM and greater than 50 µM.
As to `Cc1ccc(Nc2nc(-c3ccccn3)cc(N3CCCC(O)C3)n2)cc1` (stereo unspecified), the IC50 is 0.79 µM. Besides, the IC50 under setting [1] came to 25 µM. In addition, under setting [2], the concentration for half-maximal inhibition (IC50) was 0.5 µM.
Consider `COc1cccc(-c2c(C)nn(-c3nc(N)nc(-c4ccccn4)n3)c2N)c1`, for which the IC50 was 2 µM. This compound also returned an IC50 under setting [1] greater than 50 µM. Under setting [2], this compound showed an IC50 of 1.6 µM.
Take `C=CC[C@@H]1CC=C[C@@H](C)N1C(=O)CCc1nnc(-c2ccc3c(c2)OCO3)o1`: the half-maximal inhibitory concentration (IC50) was 7.9 µM. Under setting [1], the IC50 was determined as 13 µM. Further, under setting [2], the IC50 came out at 3.2 µM.
Take `COc1ccc2ncc(=O)n(CCN3CCOC(CNCc4ccc(C(F)(F)F)cc4F)C3)c2n1` (stereo unspecified): the IC50 was > 50 µM (inactive). In addition, under setting [1], the IC50 was greater than 50 µM. Further, the IC50 under setting [2] is greater than 50 µM.
Regarding `CCn1c(NC(=O)Cc2ccc(F)cc2)nc2ccccc21`, the IC50 is 10 µM. Besides, the IC50 under setting [1] was greater than 50 µM. Under setting [2], the half-maximal inhibitory concentration (IC50) turned out to be 6.3 µM.
On the same counts, the results for `N#Cc1cccc(CN2CCC(N(Cc3cccnc3)C(=O)c3cc(F)c(F)cc3F)CC2)c1` are > 50 µM (inactive), greater than 50 µM and 13 µM.
`CC(C)c1nn(-c2nc(N)nc(-c3ccccn3)n2)c(N)c1C1CCCCC1`: the half-inhibitory concentration (IC50) was 1 µM. The compound further showed an IC50 under setting [1] of 5 µM. The compound further showed a concentration for half-maximal inhibition (IC50) under setting [2] of 0.79 µM.
Turning to `CN(CCOc1ccc(Cl)cc1)Cc1nc(N)nc(N(C)C)n1`, the half-maximal inhibitory concentration (IC50) is 7.9 µM. For the same compound, under setting [1], the IC50 is greater than 50 µM. The same compound displayed an IC50 under setting [2] of 5 µM.
With `CCN(Cc1ccncc1)Cc1ccc(NC(=O)c2cc(-c3ccc(F)cc3)n[nH]2)cc1`, the IC50 was > 50 µM (inactive). The compound further returned an IC50 under setting [1] of 5 µM. Under setting [2], this compound gave a half-maximal inhibitory concentration (IC50) of 2.5 µM.
Regarding `CCCCn1nnnc1CSc1nc(C)cc(C)c1C#N`, the IC50 was 4 µM. Besides, the concentration for half-maximal inhibition (IC50) under setting [1] was greater than 50 µM. Under setting [2], this compound displayed an IC50 of 3.2 µM.
In the case of `CCCCn1c(=O)c2c(N)onc2n(CCCC)c1=O`, the IC50 is > 50 µM (inactive). Further, under setting [1], the IC50 was greater than 50 µM. Besides, the IC50 under setting [2] came out at 32 µM.
Regarding `Cc1nn(C)c(Cl)c1CN(Cc1cccnc1)Cc1ccsc1`, the IC50 was > 50 µM (inactive). The same compound yielded an IC50 under setting [1] greater than 50 µM. In addition, under setting [2], the IC50 was found to be 3.2 µM.
For the compound `COc1ccc(C(=O)NC2CCN(CCn3c(=O)ccc4ncc(F)cc43)CC2)cc1Cl`, the IC50 is > 50 µM (inactive). The compound also showed a 50% inhibitory concentration (IC50) under setting [1] greater than 50 µM. This compound also returned an IC50 under setting [2] of 16 µM.
The corresponding values for `O=C(Nc1nc(-c2ccc(F)cc2)cs1)c1ccc([N+](=O)[O-])s1` are 1.3 µM, 7.9 µM and 1 µM.
Take `CC(CCc1ccccc1)NC(=O)CN(Cc1ccccn1)Cc1ccccn1` (stereo unspecified): the half-inhibitory concentration (IC50) was 3.2 µM. In addition, under setting [1], the IC50 came to 20 µM. The compound also gave a 50% inhibitory concentration (IC50) under setting [2] of 3.2 µM.
Take `CC(C)CC(=O)NC(c1cccs1)c1ccc2cccnc2c1O` (stereo unspecified): the 50% inhibitory concentration (IC50) is 7.9 µM. Moreover, the concentration for half-maximal inhibition (IC50) under setting [1] turned out to be 1.6 µM. The 50% inhibitory concentration (IC50) under setting [2] stood at 3.2 µM.
With `COc1ccc2ncc(F)c(NC(=O)C3(O)CCC(NCc4ccc5c(c4)OCCO5)CC3)c2n1` (stereo unspecified), the IC50 is 32 µM. The compound further returned an IC50 under setting [1] of 20 µM. The IC50 under setting [2] worked out at 16 µM.
On to `CCc1cccc(CC)c1-n1c(SCC(=O)N2CC(=O)Nc3ccccc32)nnc1-c1cccnc1`, for which the IC50 is > 50 µM (inactive). Under setting [1], this compound displayed a 50% inhibitory concentration (IC50) greater than 50 µM. This compound displayed an IC50 under setting [2] greater than 50 µM.
In the case of `c1ccc(CCNCc2cncc3nc(-c4cnccn4)n(C4CCCCC4)c23)cc1`, the IC50 is > 50 µM (inactive). Moreover, the concentration for half-maximal inhibition (IC50) under setting [1] is greater than 50 µM. In addition, the half-inhibitory concentration (IC50) under setting [2] is greater than 50 µM.
As for `O=c1cc(NCCCNC2CCOc3c(I)cc(Cl)cc32)[nH]c2ccccc12` (stereo unspecified), the IC50 is 20 µM. Under setting [1], this compound came in with a half-inhibitory concentration (IC50) of 20 µM. The compound also showed a half-maximal inhibitory concentration (IC50) under setting [2] of 13 µM.
In the case of `NCC(Cc1ccccc1)NC(=O)c1cnc(-c2c[nH]c3ncccc23)s1` (stereo unspecified), the IC50 is 16 µM. Under setting [1], this compound showed an IC50 of 6.3 µM. The same compound had an IC50 under setting [2] of 13 µM.

(Values after PubChem BioAssay AID1159564 (GlaxoSmithKline (GSK), 2015).)
